Data as given in patent US5952510A, “1,3-dihydro-1-(phenylalkenyl)-2H-imidazol-2-one derivatives having PDE IV and cytokine inhibiting activity” (Janssen Pharmaceutica, N.V., priority 1995, dated 1999).

Legend:
[1] = tested on: Dextran-induced oedema formation in mouse ear; test: Dextran-induced oedema formation in mouse ear; type: in vivo, Male Swiss mice; conditions: 5 mg/kg, oral, one hour before intravenous dextran T500 + pontamine sky-blue dye; compared with background extravasation
Procedure: Dextran-induced oedema formation in mouse ear.
Systemic injection of dextran T500 in normal, non-sensitized mice elicits increased vascular permeability, leading to extravasation and oedema of the extremities. When dextran is injected together with a blue dye, blueing of the ears is the most prominent feature of oedematous response.
Male Swiss mice weighing 24-26 g were orally pretreated with the test compound dissolved in PEG-200 at different concentrations or solvent. One hour later, the mice were given an intravenous injection with an isotonic saline solution containing 12 mg/ml dextran T500 and 2.6 mg/ml pontamine sky-blue dye, in a volume of 0.1 ml per 10 g body weight. One hour and forty-five minutes later, the animals are sacrificed by ether and their ears removed. Extraction and quantification of the extravasated dye is done as described by Van Wauwe and Goossens (Drug Dev. Res. 1986, 8, 213-218).
The extravasation of the dye is characterized by the blueing value which is defined as the concentration of the extracted dye in both ears. The background blueing value was determined once as the mean blueing value obtained by injecting a group of mice with a saline solution containing only dextran T500 and the blue dye. Table 1 lists the percentage inhibition of the extravasation of the dye when compared with the background extravasation of the dye when the test compound was administered at a dose of 5 mg/kg.

[2] = molecular target: T1, recombinant human MNL phosphodiesterase type IV B (Homo sapiens, UniProt Q07343); test: Inhibition of recombinant human mononuclear lymphocyte (MNL) phosphodiesterase type IV B produced in insect cells with a baculovirus vector; type: biochemical; conditions: 0.8 μM 3H-cAMP, pH 8, 37° C., 10 min; calculated graphically
T1 construct: made in house; host or cells: insect cells infected with recombinant baculovirus
Procedure: Inhibition of recombinant human mononuclear lymphocyte (MNL) phosphodiesterase type IV B produced in insect cells with a baculovirus vector, The alleviating and/or curing effect of the instant compounds on allergic and atopic diseases was assessed by an in vitro assay system to detect an inhibiting effect on the recombinant human MNL phosphodiesterase type IV B.
Seventy-two hours after infection with recombinant baculovirus, the insect cells were harvested and pelleted at 500 g for 5 minutes. The cells were lysed in 10 ml lysis-buffer consisting of 20 mM Tris, 10 mM EGTA, 2 mM Na2 EDTA, 1% Triton-X-100, 1 mM Na3 VO4, 10 mM NaF, 2 μg/ml of leupeptine, pepstatine and aprotinine, 0.3 μg/ml benzamidine and 100 μg/ml TPCK pH 7.5. After 5 minutes on ice, solubilized cells were centrifuged at 4000 rpm for 15 minutes at 4° C. The resulting supernatant was filtered through a 0.45 μm filter (Millipore) and brought to TBS buffer (50 mM Tris, 150 mM NaCl pH 7.4).
The supernatant containing phosphodiesterase (PDE) type IV B, was subsequently loaded onto a 5 ml anti-FLAG-M2 affinity gel column, previously activated with 5 ml 100 mM glycine pH 3.5 and equilibrated with 20 ml 50 mM Tris, 150 mM NaCl pH 7.4. After washing the column with equilibration buffer, PDE IV was eluted in 1.5 ml fractions containing 37.5 μl 1M Tris pH 8. The fractions were dialyzed overnight against 20 mM Tris, 2 mM Na2 EDTA and 400 mM NaCl pH 7.5 and tested for PDE IV activity. Indentification was done on SDS PAGE and Western Blot (anti-FLAG-M2). Active fractions were pooled, brought to 10% glycerol and stored at -70° C.
The incubation mixture (pH 8) (200 μl) contained 20 mM Tris, 10 mM magnesium sulphate, 0.8 μM ^3 H-cAMP (310 mCi/mmole) and the phosphodiesterase type IV, the amount depending on the enzymatic activity. […]
The inhibiting effect of the present compounds on recombinant human MNL phosphodiesterase PDE IV B was measured at different concentrations of the instant compounds. The IC50 values (expressed in M) were calculated graphically from the thus obtained inhibition values.

T1 sequence (Q07343 whole entry): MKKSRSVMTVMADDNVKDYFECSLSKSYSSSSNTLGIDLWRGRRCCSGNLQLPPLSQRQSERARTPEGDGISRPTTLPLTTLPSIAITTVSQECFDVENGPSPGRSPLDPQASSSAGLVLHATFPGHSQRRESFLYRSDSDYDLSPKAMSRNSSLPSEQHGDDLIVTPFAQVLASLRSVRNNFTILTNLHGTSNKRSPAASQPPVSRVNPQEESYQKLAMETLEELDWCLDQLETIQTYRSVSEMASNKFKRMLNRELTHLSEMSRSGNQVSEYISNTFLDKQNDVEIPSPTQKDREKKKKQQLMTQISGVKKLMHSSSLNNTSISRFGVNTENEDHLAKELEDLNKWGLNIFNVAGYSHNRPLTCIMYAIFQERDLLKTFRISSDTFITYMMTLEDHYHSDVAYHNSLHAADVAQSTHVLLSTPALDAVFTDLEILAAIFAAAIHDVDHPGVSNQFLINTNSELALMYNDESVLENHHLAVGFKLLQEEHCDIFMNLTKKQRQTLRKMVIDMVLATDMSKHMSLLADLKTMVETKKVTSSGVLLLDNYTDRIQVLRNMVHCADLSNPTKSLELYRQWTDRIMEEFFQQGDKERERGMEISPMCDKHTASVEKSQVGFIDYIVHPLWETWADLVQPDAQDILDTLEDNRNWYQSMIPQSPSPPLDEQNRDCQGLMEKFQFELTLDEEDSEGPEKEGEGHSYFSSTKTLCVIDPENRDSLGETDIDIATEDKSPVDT

For `COc1ccc(C(=CN2CCNC2=O)c2ccccc2)cc1OC` [Compound 8, 1-[2-(3,4-dimethoxyphenyl)-2-phenylethenyl]-2-imidazolidinone], the “% inhibition of the extravasation of the dye” value (from here on “% inhibition”) [1] was 17.9%.

`COc1ccc(/C(=C/n2ccn(C(c3ccccc3)c3ccccc3)c2=O)c2ccccc2)cc1OC1CCCC1` [Compound 10, (E)-1-[2-[3-(cyclopentyloxy)-4-methoxyphenyl]-2-phenylethenyl]-3-(diphenylmethyl)-1,3dihydro-2H-imidazol-2-one] was tested, and the “% inhibition” value [1] was 40.1%.

For `COc1ccc(/C(C)=C\n2ccn(C(c3ccccc3)c3ccccc3)c2=O)cc1OC1CCCC1` [Compound 12, (Z)-1-[2-[3-(cyclopentyloxy)-4-methoxyphenyl]-1-propenyl]-3-(diphenylmethyl)-2H-imidazol-2-one], the IC50 [2] was under 1000 nM.

`COc1ccc(C(=CN2CCN(C(C)=O)C2=O)c2ccccc2)cc1OC` [Compound 9, 1-acetyl-3-[2-(3,4dimethoxyphenyl)-2-phenylethenyl]-2-imidazolidinone] was tested, and the “% inhibition” value [1] was 11.1%.

For `CCOC(=O)C/C(=C\n1cc[nH]c1=O)c1ccc(OC)c(OC2CCCC2)c1` [Compound 4, ethyl (E)-3-(cyclopentyloxy)-β-[(2,3dihydro-2-oxo-1H-imidazol-1-yl)methylene]-4methoxybenzene-propanoate], the IC50 [2] was under 1000 nM and the “% inhibition” value [1] was 25.9%.

`COc1ccc(/C(=C\n2cc[nH]c2=O)CC(=O)O)cc1OC1CCCC1` [Compound 7, (Z)-3-(cyclopentyloxy)-β-[(2,3-dihydro-2-oxo-1H-imidazol-1-yl)methylene]4-methoxybenzenepropanoic acid] was tested, and the “% inhibition” value [1] was 49.9%.

With `COc1ccc(/C(=C/n2cc[nH]c2=O)c2ccccc2)cc1OC1CCCC1` [Compound 2, (E)-1-[2-[3-(cyclopentyloxy)-4-methoxyphenyl]-2-phenylethenyl]-1,3-dihydro-2H-imidazol-2-one] the IC50 [2] was under 1000 nM and the “% inhibition” value [1] was 15.5%.

`COc1ccc(/C(=C\n2ccn(C(c3ccccc3)c3ccccc3)c2=O)c2ccccc2)cc1OC1CCCC1` [Compound 11, (Z)-1-[2-[3-(cyclopentyloxy)-4-methoxyphenyl]-2-phenylethenyl]-3-(diphenylmethyl)-1,3-dihydro-2H-imidazol-2-one] was tested, and the “% inhibition” value [1] was 19.3%.
